The text below walks through data of patent publication US20250235501A1, “Methods and Compositions for Treating or Preventing Neurological Injury or Neurological Disorders” (University of Connecticut, priority 2024, published 2025).

Assay [1] relates to NMDARs (GluN1a, GluN2a, GluN2b). As to the kind of experiment: Surface expression of NMDARs in HEK293T cells co-transfected with NMDARs and TRPM2 (WB). Type of assay: cell-based, human. Particulars: 10 μM peptide overnight; NMDARs/TRPM2 vs NMDARs/EGFP. Here is the method:
FIGS. 4K-4N show the surface expression of NMDARs in HEK-293T cells co-transfected with TRPM2 or EGFP with the treatment of PKC activator PMA (FIG. 4K) and inhibitor Stausporine (FIG. 4L). Membrane (Mem) and cytocol (Cyto) NMDARs were analyzed and averaged from 3 independent experiments with 1 μM PMA treatment (FIG. 4N) or 1 μM Stausporine treatment (FIG. 4L) for overnight. Pan-cadherin and β-tubulin were loading controls for membrane and cytosol protein, respectively (*, p<0.05, **, p<0.01, ***, p<0.001, unpaired t-test, mean±SEM, n=3/group).
FIGS. 5C-5F effects of TAT-EE3 on surface expression of NMDARs. HEK293T cells co-transfected with NMDARs with TRPM2 (+M2) or EGFP vector (Con) were treated with 10 μM TAT-SC (FIG. 5C) or TAT-EE3 (FIG. 5D) overnight. Membrane (Mem) and cytosol (Cyto) proteins of NMDARs in TAT-SC (FIG. 5E) and TAT-EE3 (FIG. 5F) treated groups were assessed by WBs and analyzed in reference to Pan-cadherin or β-tubulin (**, p<0.01, ***, p<0.001, unpaired t-test, mean±SEM). All the results were replicated in at least 3 independent experiments.
Pan-cadherin and β-tubulin were used as loading control for membrane and cytosolic protein extraction.
were ordered from GenScript Biotech, and dissolved in PBS to make a stock concentration at 10 mM. HEK-293T cells or isolated neurons were treated with TAT-SC or TAT-EE3 at a concentration of 10 μM for at least 8 h prior to use. Mice were injected with TAT-SC or TAT-EE3 intraperitoneally (ip) at a dose of 100 nmol/kg.
HEK293T cells were cultured in Dulbecco's Modified Eagle's medium (DMEM) (Thermal Fisher Scientific, 12100-038) supplemented with 10% BGS (HyClone, SH30541.03) and 0.5% penicillin/streptomycin (Thermal Fisher Scientific, 15140-122) at 37° C. and 5% CO2. 8 h prior to transfection, culture medium was replaced with DMEM supplemented only with 2.5% BGS. Cells were transfected when at a confluence about 80-90% using Lipofectamine® 3000 Transfection Kit (Thermal Fisher Scientific, 2232162) based on instruction.
NP-40/Triton lysis buffer ([…], 1% Triton™ X-100, 150 mM NaCl, 1 mM EDTA, 50 mM Tris, pH=8.0) containing proteinase inhibitors and phosphatase inhibitors was used to lyse both cultured cells and frozen brain tissue. Surface protein was extracted using Pierce® Cell Surface Protein Isolation Kit (Thermal Fisher Scientific, 89881) in transfected HEK-293T cells, and using ProteoExtract™ Native Membrane Protein Extraction Kit (Calbiochem, 444810) in brain tissue based on instructions. […] Protein concentration was measured using Pierce™ Rapid Gold BCA Protein Assay Kit.
30-50 μg of total protein was loaded and separated proteins were transferred to Nitrocellulose membranes. […] Band intensity was quantified using ImageJ software and normalized with appropriate loading controls.

Another assay has as its system MCAO mice. As to the kind of experiment: Middle cerebral artery occlusion (MCAO) ischemic stroke model. Type of assay: in vivo, mouse.
[2] abbreviates: 100 nmol/kg ip 15 mins before MCAO, 24 hrs after MCAO, vs TAT-SC-treated mice.
Setting [3] is: 1 h MCAO, administered every 12 h, day 1, day 3, and day 7.
The mark [4] stands for this setting: FIGS. 18C-18E, pre-MCAO administration i.p. 30 min before MCAO.
The mark [5] stands for this setting: post-MCAO treatment, injected right before reopening of the MCA, WT mice.

On to “TAT-EE3: membrane permeable disrupting peptide, sequence YGRKKRRQRRREEDTDSSEEMLALAEE (SEQ ID NO: 4)”, for which, in assay [1], the “enhancement of NMDAR surface expression by TRPM2” value is on record as “eliminated the enhancement”. Further, in the assay on MCAO mice (setting [2]), the infarct volume entry is “significantly reduced” and the neurological behavior scores entry is listed as “improved”. Besides, in the assay with MCAO mice (setting [3]), the “ND scores, long-term MCAO (7 days)” value is listed as “improved” and the “latency to fall time (rotarod test), long-term MCAO” value is given as “inhibited the reduction”. In addition, in the assay with MCAO mice (setting [4]), the infarct volume entry was “reduced” and the “neurological deficit (ND) score” value was “improved”. In the assay with MCAO mice (setting [5]), the ND score entry is on record as “improved” and the infarct volume result is “reduced”. Besides, the “protective effects in nM2KO mice” value in the assay on MCAO mice (post-MCAO treatment, neuron-specific TRPM2 knockout mice) is given as “did not produce further protective effects”.
